Here are results for 33 substances from patent publication US9988635B2, “Modulation of growth hormone receptor expression and insulin-like growth factor expression” (Antisense Therapeutics Limited, priority 2003, dated 2018).

In the oligonucleotide strings, read from the 5' end, every base follows the letter of its sugar. An asterisk marks phosphorothioate; unmarked linkages are phosphodiester. Other units and linkages are bracketed, terminal groups are in braces. A string of capitals states the bases alone. e = 2'-O-(2-methoxyethyl) (MOE); [5mC] = 5-methylcytosine; d = 2'-deoxy (DNA)

The data set deals with human growth hormone receptor mRNA. Description: Inhibition of human growth hormone receptor mRNA levels in MCF7 cells, quantitative real-time PCR. The data set is classed as cell-based. Also noted: concentration or dose not given beside the values. The following applies: averages from three experiments. On the procedure: The human breast carcinoma cell line MCF-7 was obtained from the American Type Culture Collection (Manassas, Va.). MCF-7 cells were routinely cultured in DMEM low glucose (Gibco/Life Technologies, Gaithersburg, Md.) supplemented with 10% fetal calf serum (Gibco/Life Technologies, Gaithersburg, Md.). Cells were routinely passaged by trypsinization and dilution when they reached 90% confluence. Cells were seeded into 96-well plates (Falcon-Primaria #3872) at a density of 7000 cells/well for use in RT-PCR analysis.
When cells reached 65-75% confluency, they were treated with oligonucleotide. For cells grown in 96-well plates, wells were washed once with 100 μL OPTI-MEM™-1 reduced-serum medium (Invitrogen Corporation, Carlsbad, Calif.) and then treated with 130 μL of OPTI-MEM™-1 containing 3.75 μg/mL LIPOFECTIN™ (Invitrogen Corporation, Carlsbad, Calif.) and the desired concentration of oligonucleotide. Cells are treated and data are obtained in triplicate. After 4-7 hours of treatment at 37° C., the medium was replaced with fresh medium. Cells were harvested 16-24 hours after oligonucleotide treatment.
Total RNA was isolated using an RNEASY 96™ kit and buffers purchased from Qiagen Inc. (Valencia, Calif.) following the manufacturer's recommended procedures. Briefly, for cells grown on 96-well plates, growth medium was removed from the cells and each well was washed with 200 μL cold PBS. 150 μL Buffer RLT was added to each well and the plate vigorously agitated for 20 seconds. 150 μL of 70% ethanol was then added to each well and the contents mixed by pipetting three times up and down. The samples were then transferred to the RNEASY 96™ well plate attached to a QIAVAC™ manifold fitted with a waste collection tray and attached to a vacuum source. Vacuum was applied for 1 minute. 500 μL of Buffer RW1 was added to each well of the RNEASY 96™ plate and incubated for 15 minutes and the vacuum was again applied for 1 minute. An additional 500 μL of Buffer RW1 was added to each well of the RNEASY 96™ plate and the vacuum was applied for 2 minutes. 1 mL of Buffer RPE was then added to each well of the RNEASY 96™ plate and the vacuum applied for a period of 90 seconds. The Buffer RPE wash was then repeated and the vacuum was applied for an additional 3 minutes. The plate was then removed from the QIAVAC™ manifold and blotted dry on paper towels. The plate was then re-attached to the QIAVAC™ manifold fitted with a collection tube rack containing 1.2 mL collection tubes. RNA was then eluted by pipetting 140 μL of RNAse free water into each well, incubating 1 minute, and then applying the vacuum for 3 minutes.
Quantitation of growth hormone receptor mRNA levels was accomplished by real-time quantitative PCR using the ABI PRISM™ 7600, 7700, or 7900 Sequence Detection System (PE-Applied Biosystems, Foster City, Calif.) according to manufacturer's instructions. This is a closed-tube, non-gel-based, fluorescence detection system which allows high-throughput quantitation of polymerase chain reaction (PCR) products in real-time. As opposed to standard PCR in which amplification products are quantitated after the PCR is completed, products in real-time quantitative PCR are quantitated as they accumulate. This is accomplished by including in the PCR reaction an oligonucleotide probe that anneals specifically between the forward and reverse PCR primers, and contains two fluorescent dyes. A reporter dye (e.g., FAM or JOE, obtained from either PE-Applied Biosystems, Foster City, Calif., Operon Technologies Inc., Alameda, Calif. or Integrated DNA Technologies Inc., Coralville, Iowa) is attached to the 5′ end of the probe and a quencher dye (e.g., TAMRA, obtained from either PE-Applied Biosystems, Foster City, Calif., Operon Technologies Inc., Alameda, Calif. or Integrated DNA Technologies Inc., Coralville, Iowa) is attached to the 3′ end of the probe. When the probe and dyes are intact, reporter dye emission is quenched by the proximity of the 3′ quencher dye. […]

“272316 (antisense eA*eA*e[5mC]*eT*e[5mC]*dG*d[5mC]*d[5mC]*dA*dT*dA*dA*dT*dT*dT*e[5mC]*e[5mC]*eA*eG*eA) [compound 272316]”: the “% INHIB of human growth hormone receptor mRNA levels” value (from here on “% INHIB”) amounted to 64%. “272322 (antisense e[5mC]*eT*eG*eG*e[5mC]*dT*d[5mC]*dA*dT*d[5mC]*dA*dA*dT*dA*dT*e[5mC]*eT*eA*eG*e[5mC]) [compound 272322]”: the “% INHIB” value is recorded as 84%. As for “272348 (antisense e[5mC]*eA*e[5mC]*eA*eG*d[5mC]*dT*dT*dT*dG*dA*dA*dT*dT*dG*eA*eA*eT*eT*eA) [compound 272348]”, the “% INHIB” value worked out at 57%.

As to “272353 (antisense eA*eT*eA*eA*eT*dG*dG*d[5mC]*dT*dT*dA*dT*dG*dT*dG*eG*e[5mC]*e[5mC]*eA*e[5mC]) [compound 272353]”, the “% INHIB” value was determined as 72%. As for “272355 (antisense eT*eT*eG*eA*eG*dT*dG*dT*dT*d[5mC]*d[5mC]*dT*dA*dA*dA*eA*eT*eG*eA*eA) [compound 272355]”, the “% INHIB” value is 24%. In the case of “272346 (antisense e[5mC]*eT*e[5mC]*eT*eT*dG*dG*dA*dG*dA*dA*dA*dA*d[5mC]*d[5mC]*eA*eT*eA*eG*e[5mC]) [compound 272346]”, the “% INHIB” value was determined as 67%. As for “272341 (antisense eG*eA*eG*eG*e[5mC]*dT*dA*dT*dA*dG*dA*dT*d[5mC]*dT*dT*eA*eT*e[5mC]*eT*e[5mC]) [compound 272341]”, the “% INHIB” value was 65%.

Regarding “272313 (antisense eA*eT*eT*eG*e[5mC]*dG*dT*dG*dG*dT*dG*d[5mC]*dT*dT*d[5mC]*e[5mC]*e[5mC]*eA*eT*e[5mC]) [compound 272313]”, the “% INHIB” value stood at 77%.

As to “227489 (antisense eT*eG*eT*eT*e[5mC]*dA*dG*dT*dT*dG*dG*dT*d[5mC]*dT*dG*eT*eG*e[5mC]*eT*e[5mC]) [compound 227489]”, the “% INHIB” value stood at 75%. In the case of “272319 (antisense eA*eT*eT*eT*eT*d[5mC]*d[5mC]*dT*dT*d[5mC]*d[5mC]*dT*dT*dG*dA*eG*eG*eA*eG*eA) [compound 272319]”, the “% INHIB” value is given as 67%. As for “227484 (antisense eT*eG*eG*eT*eA*dA*dG*dG*d[5mC]*dT*dT*dT*d[5mC]*dT*dG*eT*eG*eG*eT*eG) [compound 227484]”, the “% INHIB” value is recorded as 63%.

For the substance “272339 (antisense eG*eT*eT*eT*eT*dA*d[5mC]*dA*dT*dA*dT*d[5mC]*d[5mC]*dA*dA*eA*e[5mC]*eT*eA*eT) [compound 272339]”, the “% INHIB” value came out at 72%.

As for “272320 (antisense eA*eG*eA*eT*eT*dG*dT*dG*dT*dT*d[5mC]*dA*d[5mC]*d[5mC]*dT*e[5mC]*e[5mC]*eT*e[5mC]*eT) [compound 272320]”, the “% INHIB” value stood at 70%. Turning to “272321 (antisense eA*eA*e[5mC]*e[5mC]*e[5mC]*dA*dA*dG*dA*dG*dT*d[5mC]*dA*dT*d[5mC]*eA*e[5mC]*eT*eG*eT) [compound 272321]”, the “% INHIB” value is listed as 64%. With “272307 (antisense eG*eT*eG*eA*eA*dT*dT*dT*dA*dG*dG*d[5mC]*dT*d[5mC]*d[5mC]*eT*eT*eA*eG*eA) [compound 272307]”, the “% INHIB” value is 55%. Under “227481 (antisense eT*eG*eG*eT*eG*dA*dT*dG*dT*dA*dA*dA*dT*dG*dT*e[5mC]*e[5mC]*eT*e[5mC]*eT) [compound 227481]” stands 45%; under “227502 (antisense eG*eA*eT*eT*eG*dA*dG*dG*dT*dA*dT*dT*dT*dA*dG*e[5mC]*eT*eA*eT*eT) [compound 227502]”, 56%. With “272327 (antisense eG*eG*eA*e[5mC]*eA*dT*d[5mC]*d[5mC]*d[5mC]*dT*dG*d[5mC]*d[5mC]*dT*dT*eA*eT*eT*e[5mC]*eT) [compound 272327]” the figure was 60%. Regarding “272304 (antisense eT*eG*e[5mC]*eT*eA*dA*dG*dG*dA*dT*dA*dG*d[5mC]*dT*dG*e[5mC]*eT*eG*eT*eG) [compound 272304]”, the “% INHIB” value is reported as 48%. Turning to “227464 (antisense e[5mC]*e[5mC]*eT*eT*eT*dA*dA*dT*d[5mC]*dT*dT*dT*dG*dG*dA*eA*e[5mC]*eT*eG*eG) [compound 227464]”, the “% INHIB” value is given as 58%. With “272343 (antisense eA*eA*eT*eG*e[5mC]*dT*d[5mC]*dT*d[5mC]*dA*dA*dG*dA*dA*dT*eG*eA*eT*eG*eT) [compound 272343]” the figure was 48%; with “272359 (antisense eT*e[5mC]*e[5mC]*eA*eA*dA*dT*dA*dT*dT*d[5mC]*dT*dG*dG*dT*eA*e[5mC]*eT*eT*eT) [compound 272359]”, 72%. With “227453 (antisense e[5mC]*eA*eT*eA*eA*dT*d[5mC]*dA*dG*dG*dG*d[5mC]*dA*dT*dT*e[5mC]*eT*eT*eT*e[5mC]) [compound 227453]”, the “% INHIB” value worked out at 52%. Take “272329 (antisense eA*e[5mC]*eT*eT*eT*dT*dT*dG*dG*d[5mC]*dA*dT*d[5mC]*dT*dG*e[5mC]*e[5mC]*eT*e[5mC]*eA) [compound 272329]”: the “% INHIB” value came out at 63%.

On to “227475 (antisense e[5mC]*e[5mC]*eT*eG*e[5mC]*dT*dG*dG*dT*dG*dT*dA*dA*dT*dG*eT*e[5mC]*eG*e[5mC]*eT) [compound 227475]”, for which the “% INHIB” value worked out at 68%. With “272314 (antisense eT*eA*eG*eG*eG*dT*d[5mC]*d[5mC]*dA*dT*d[5mC]*dA*dT*dT*dT*eT*e[5mC]*e[5mC]*eA*eT) [compound 272314]” the figure was 56%; with “272308 (antisense eG*e[5mC]*eT*eG*eT*dA*dT*dG*dG*dG*dT*d[5mC]*d[5mC]*dT*dA*eG*eG*eT*eT*e[5mC]) [compound 272308]”, 57%.

On to “272360 (antisense eT*eA*eT*eT*eA*dG*dT*dT*dA*d[5mC]*d[5mC]*dT*dT*dG*dA*eG*eG*eA*eG*eA) [compound 272360]”, for which the “% INHIB” value is 0%. “272302 (antisense eG*eA*eT*e[5mC]*e[5mC]*dA*dT*dA*d[5mC]*d[5mC]*dT*dG*dT*dA*dG*eG*eA*e[5mC]*e[5mC]*eT) [compound 272302]”: the “% INHIB” value is 60%. With “272352 (antisense e[5mC]*e[5mC]*eA*eA*eA*dA*dT*dG*dA*d[5mC]*dA*dT*dT*d[5mC]*dT*eG*eA*eG*eA*e[5mC]) [compound 272352]”, the “% INHIB” value is on record as 77%.

For “272324 (antisense eT*eA*eT*eG*eT*d[5mC]*dA*dT*dT*dG*dG*d[5mC]*dA*dT*dT*eG*eA*eA*eA*eT) [compound 272324]”, the “% INHIB” value amounted to 53%. With “272311 (antisense eT*eT*eG*e[5mC]*eA*d[5mC]*dT*dA*dT*dT*dT*d[5mC]*dA*dT*d[5mC]*eA*eA*e[5mC]*eA*eG) [compound 272311]” the figure was 47%.

As for “272315 (antisense e[5mC]*eA*eA*eT*eG*dA*dG*dT*dA*d[5mC]*dA*d[5mC]*dT*dG*dG*eA*eA*e[5mC]*eT*eG) [compound 272315]”, the “% INHIB” value is given as 53%.
